In ChEMBL document CHEMBL4138060, “Development of new scaffolds as reversible tissue transglutaminase inhibitors, with improved potency or resistance to glutathione addition” (Medchemcomm, 2017):
pIC50, pKi: −log10 of the molar value.

biological target: T1, Protein-glutamine gamma-glutamyltransferase (Homo sapiens, UniProt P21980); assay: Inhibition of human transglutaminase 2; settings: not given
T1 sequence (P21980 whole entry): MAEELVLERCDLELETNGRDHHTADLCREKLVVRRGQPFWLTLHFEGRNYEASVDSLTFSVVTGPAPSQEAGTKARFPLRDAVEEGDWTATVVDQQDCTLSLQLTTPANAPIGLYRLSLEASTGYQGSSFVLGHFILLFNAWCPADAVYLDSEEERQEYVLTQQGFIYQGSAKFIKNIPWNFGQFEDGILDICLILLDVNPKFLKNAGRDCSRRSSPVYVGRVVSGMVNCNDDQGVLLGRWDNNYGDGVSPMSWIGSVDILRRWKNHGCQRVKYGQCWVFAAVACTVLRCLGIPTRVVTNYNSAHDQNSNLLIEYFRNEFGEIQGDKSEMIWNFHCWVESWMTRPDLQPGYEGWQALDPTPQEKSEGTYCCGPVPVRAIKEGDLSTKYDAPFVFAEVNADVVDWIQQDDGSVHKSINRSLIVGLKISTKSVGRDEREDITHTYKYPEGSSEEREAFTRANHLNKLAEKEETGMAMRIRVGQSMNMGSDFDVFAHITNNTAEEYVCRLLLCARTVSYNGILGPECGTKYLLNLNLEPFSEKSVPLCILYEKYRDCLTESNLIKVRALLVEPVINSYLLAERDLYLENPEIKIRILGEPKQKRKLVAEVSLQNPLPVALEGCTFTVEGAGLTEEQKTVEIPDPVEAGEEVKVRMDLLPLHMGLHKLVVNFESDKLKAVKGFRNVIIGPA

Row | pIC50 | pKi | Structure (SMILES)
1 | 4.71 | 5.40 | O=C(/C=C/c1cccc([N+](=O)[O-])c1)c1cccnc1

biological target: not listed separately; assay: Inhibition of guinea pig liver transglutaminase 2; set-up: species or system Cavia porcellus; settings: not given

Row | pIC50 | Structure (SMILES)
2 | 4.68 | O=C(/C=C/c1ccc([N+](=O)[O-])cc1)c1cccnc1
3 | 4.13 | O=C(/C=C/c1ccc([N+](=O)[O-])cc1)n1nnc2ccccc21
4 | 5.52 | O=C(/C=C/c1cccc([N+](=O)[O-])c1)c1cccnc1

biological target: T1, Protein-glutamine gamma-glutamyltransferase; assay: Competitive inhibition of human transglutaminase 2 using N-Cbz-Glu(gamma-p-nitrophenylester)Gly (AL5) substrate measured over 10 mins by UV-visible spectrophotometry based Michaelis-Menten analysis; settings: not given

Row | Structure (SMILES) | pKi
5 | O=C(c1cn(Cc2ccc([N+](=O)[O-])cc2)nn1)c1cn(Cc2ccc([N+](=O)[O-])cc2)nn1 | 5.00
6 | O=C(C#Cc1ccc([N+](=O)[O-])cc1)c1cn(Cc2ccc([N+](=O)[O-])cc2)nn1 | 6.38

biological target: not listed separately; assay: Inhibition of guinea pig liver transglutaminase 2 using N-Cbz-Glu(gamma-p-nitrophenylester)Gly (AL5) substrate measured over 10 mins by UV-visible spectrophotometry; set-up: species or system Cavia porcellus; settings: not given

Row | Structure (SMILES) | pIC50
7 | O=C(/C=C/c1ccc([N+](=O)[O-])cc1)c1cn(Cc2ccc([N+](=O)[O-])cc2)nn1 | 5.68
8 | O=C(/C=C/c1ccc([N+](=O)[O-])cc1)n1nnc2ccccc21 | 4.13

biological target: T1, Protein-glutamine gamma-glutamyltransferase; assay: Inhibition of human transglutaminase 2 using N-Cbz-Glu(gamma-p-nitrophenylester)Gly (AL5) substrate measured over 10 mins by UV-visible spectrophotometry; settings: not given

Row | Structure (SMILES) | IC50
9 | C/C(=C\C(=O)n1nnc2ccccc21)c1ccc([N+](=O)[O-])cc1 | Not Active
10 | O=C(c1cn(Cc2ccc([N+](=O)[O-])cc2)nn1)c1cn(CC2CCCCC2)nn1 | Not Active
11 | O=[N+]([O-])c1cccc(-c2cc(-c3cccnc3)on2)c1 | Not Active
12 | CC(C)/C(=C\C(=O)n1nnc2ccccc21)c1ccc([N+](=O)[O-])cc1 | Not Active
13 | O=C(c1cn(Cc2ccc(C(F)(F)F)cc2)nn1)c1cn(Cc2ccc(C(F)(F)F)cc2)nn1 | Not Active
14 | CC(C)/C(=C/C(=O)n1nnc2ccccc21)c1ccc([N+](=O)[O-])cc1 | Not Active

The remaining lines, values ahead:

Row | IC50 | Structure (SMILES)
15 | Not Active | O=C(c1cn(Cc2ccc(Br)cc2)nn1)c1cn(Cc2ccc([N+](=O)[O-])cc2)nn1
16 | Not Active | COc1ccc(Cn2cc(C(=O)c3cn(Cc4ccc([N+](=O)[O-])cc4)nn3)nn2)cc1
17 | Not Active | O=C(c1cn(Cc2ccccc2)nn1)c1cn(Cc2ccc([N+](=O)[O-])cc2)nn1
18 | Not Active | Cc1ccc(Cn2cc(C(=O)c3cn(Cc4ccc([N+](=O)[O-])cc4)nn3)nn2)cc1
19 | Not Active | O=C(c1cn(Cc2ccc(F)cc2)nn1)c1cn(Cc2ccc([N+](=O)[O-])cc2)nn1

same assay, conditions: read-out: IC50

Row | Structure (SMILES) | pIC50
20 | O=[N+]([O-])c1cccc(/C=C/C2(c3cccnc3)CO2)c1 (stereo not drawn) | 3.82
21 | O=C(C#Cc1ccc([N+](=O)[O-])cc1)n1nnc2ccccc21 | 5.59
22 | O=C(c1cc2cc([N+](=O)[O-])ccc2oc1=O)n1nnc2ccccc21 | 3.84
23 | O=C(C#Cc1ccc([N+](=O)[O-])cc1)c1cn(Cc2ccccc2)nn1 | 6.21
24 | O=C(c1cccnc1)[C@H]1C[C@@H]1c1cccc([N+](=O)[O-])c1 | 3.83
25 | O=C(C#Cc1ccc([N+](=O)[O-])cc1)c1cn(Cc2ccc([N+](=O)[O-])cc2)nn1 | 6.10
26 | O=C(c1cn(Cc2ccc(OC(F)(F)F)cc2)nn1)c1cn(Cc2ccc([N+](=O)[O-])cc2)nn1 | < 4.00
27 | O=C(/C=C/c1cccc([N+](=O)[O-])c1)c1cccnc1 | 4.71

Other lines, results leading:

Row | pIC50 | Structure (SMILES)
28 | 4.19 | O=C(c1cn(Cc2ccc([N+](=O)[O-])cc2)nn1)c1cn(Cc2ccccc2[N+](=O)[O-])nn1
29 | < 4.00 | N#Cc1ccc(Cn2cc(C(=O)c3cn(Cc4ccc([N+](=O)[O-])cc4)nn3)nn2)cc1
30 | < 4.00 | O=C(c1cn(Cc2ccc([N+](=O)[O-])cc2)nn1)c1cn(Cc2cccc([N+](=O)[O-])c2)nn1
31 | 4.85 | O=C(c1cn(Cc2ccc([N+](=O)[O-])cc2)nn1)c1cn(Cc2ccc([N+](=O)[O-])cc2)nn1
32 | 4.59 | O=C(c1cn(Cc2ccc([N+](=O)[O-])cc2)nn1)c1cn(Cc2ccc(C(F)(F)F)cc2)nn1
